In US20240376076A1, “INHIBITORS TARGETING UBIQUITIN SPECIFIC PROTEASE 7 (USP7)” (Dana-Farber Cancer Institute, Inc., priority 2021, published 2024):

How the values were obtained:
[1] = plasma stability (Plasma Assay Protocol); format: in vitro ADME; settings: 37° C., t1/2 extrapolated if >50% remaining at 60 min, ∞ if near 100% remaining
Method: (§1) ND refers to not disclosed.
• 1. Preheated 0.05 M sodium phosphate and 0.07 M NaCl buffer, pH 7.4. Dissolved 14.505 g/L Na2HPO4·12H2O, 1.483 g/L NaH2PO4·2H2O and 4.095 g/L NaCl in deionized water. The basic solution was then titrated with the phosphoric acid to pH 7.40. Stored in fridge up to 7 days. Checked pH on the day of experiment and adjust if outside specification of 7.4+/−0.1. • 2. Plasma preparation: • Thawed frozen plasma by placing at 37° C. quickly. Centrifuged plasma at 3,000 rpm for 8 minutes to remove clots, pipetted and pooled the supernatant as the plasma to be used in the experiment. Checked and recorded the pH of the plasma. Only used plasma within the range of pH 7.4 to pH 8. If higher than pH 8, discarded the plasma. By using a 5% CO2 incubator and PBS buffer, a pH of 7.4 was reached after the 4 hour equilibrium dialysis time. Put the plasma on ice until used. • 3. Tested compounds and reference compounds spiking solution: • 0.5 mM test compounds spiking solution A: Added 10 μL of 10 mM test compounds stock solution to 190 μL DMSO. • 0.02 mM spiking solution B: Added 40 μL of spiking solution A to 960 μL of […] Sodium phosphate buffer with 0.5% BSA.
Pre-warmed the plasma and spiking solution B at 37° C. for 5 min. Added 10 μL of pre-warmed spiking solution B into the wells designated for all the time points (5, 15, 30, 45, 60 min).
For 0-min, added 400 μL of acetonitrile (ACN) containing the internal standard (IS) to the wells of 0-min plate and then added 90 μL of plasma. Added 90 μL of pre-warmed plasma into the wells designated for the time points (0, 5, 15, 30, 45, 60 min), and started timing. At 5, 15, 30, 45, 60 min, added 400 μL of ACN containing IS to the wells of corresponding plates, respectively, to stop the reaction. After quenching, shook the plates at the vibrator (IKA, MTS 2/4) for 10 min (600 rpm/min) and then centrifuged at 5594 g for 15 min (Thermo Multifuge×3R). Transferred 50 μL of the supernatant from each well into a 96-well sample plate containing 50 μL of ultra pure water (Millipore ZMQS50F01) for LC/MS analysis.

[2] = molecular target: T1, USP7, Active human recombinant protein (Homo sapiens, UniProt Q93009); assay: USP7 assay (Ubiquitin-Rhodamine 110 enzymatic assay); format: biochemical; settings: read-out: IC50
T1 construct: purchased CP Lot; 20200225001
T1 sequence (Q93009 whole entry): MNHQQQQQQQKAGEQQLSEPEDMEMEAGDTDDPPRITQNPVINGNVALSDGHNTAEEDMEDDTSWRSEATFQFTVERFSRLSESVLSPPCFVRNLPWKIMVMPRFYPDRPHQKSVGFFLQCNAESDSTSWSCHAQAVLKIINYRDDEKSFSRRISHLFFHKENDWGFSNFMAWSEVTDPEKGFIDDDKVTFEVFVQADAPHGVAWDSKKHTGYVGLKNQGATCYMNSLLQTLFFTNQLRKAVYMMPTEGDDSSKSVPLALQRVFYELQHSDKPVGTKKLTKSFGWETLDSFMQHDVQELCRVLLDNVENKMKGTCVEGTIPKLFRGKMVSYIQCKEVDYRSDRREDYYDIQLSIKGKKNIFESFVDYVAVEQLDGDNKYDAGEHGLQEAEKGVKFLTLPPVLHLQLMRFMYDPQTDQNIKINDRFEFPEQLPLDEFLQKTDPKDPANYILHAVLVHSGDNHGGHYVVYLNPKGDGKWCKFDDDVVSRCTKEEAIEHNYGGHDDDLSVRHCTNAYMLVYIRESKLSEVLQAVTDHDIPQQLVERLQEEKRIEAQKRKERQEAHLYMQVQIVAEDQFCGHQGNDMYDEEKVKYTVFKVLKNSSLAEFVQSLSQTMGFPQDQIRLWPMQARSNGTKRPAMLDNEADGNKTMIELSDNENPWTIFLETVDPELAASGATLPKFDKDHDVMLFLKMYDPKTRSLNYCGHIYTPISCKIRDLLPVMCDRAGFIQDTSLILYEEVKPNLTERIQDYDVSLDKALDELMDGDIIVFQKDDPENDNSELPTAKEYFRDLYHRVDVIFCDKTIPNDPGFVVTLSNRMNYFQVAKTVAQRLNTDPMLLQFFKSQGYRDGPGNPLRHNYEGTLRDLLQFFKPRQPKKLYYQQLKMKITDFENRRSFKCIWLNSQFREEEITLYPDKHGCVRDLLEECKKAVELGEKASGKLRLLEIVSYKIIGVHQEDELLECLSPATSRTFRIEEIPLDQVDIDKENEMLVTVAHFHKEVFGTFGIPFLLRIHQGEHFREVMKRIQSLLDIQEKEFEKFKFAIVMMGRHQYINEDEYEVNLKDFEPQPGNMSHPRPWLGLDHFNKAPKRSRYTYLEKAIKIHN
Outline: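 Human recombinant USP7 (0.05 nM final) preincubated with compound, 10-point 3-fold series, 15 min at RT. Reaction started with 190 nM ubiquitin-rhodamine 110. Fluorescence (ex 485/em 535 nm) read kinetically 20 min. Slopes normalized to enzyme+substrate and substrate-only controls; IC50 from curve fit.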

[3] = mouse liver microsomal stability (Microsome Assay Protocol); format: in vitro ADME; settings: pH 7.4; mouse liver microsomes, NADPH, 37° C.; read-out: MLM t1/2, min
Method: as §1
• 1. Buffer A: 1.0 L of 0.1 M monobasic Potassium Phosphate buffer containing 1.0 mM EDTA Buffer B: 1.0 L of 0.1 M Dibasic Potassium Phosphate buffer containing 1.0 mM EDTA • Buffer C: 0.1 M Potassium Phosphate buffer, 1.0 mM EDTA, pH 7.4 by titrating 700 mL of buffer B with buffer A while monitoring with a pH meter. • 2. Reference compound (Ketanserin) and test compounds spiking solution: • 500 μM spiking solution: added 10 μL of 10 mM DMSO stock solution into 190 μL ACN. • 1.5 μM spiking solution in microsomes (0.75 mg/mL): added 1.5 μL of 500 μM spiking solution and 18.75 μL of 20 mg/mL liver microsomes into 479.75 μL of Buffer C on ice. • 3. Prepared NADPH stock solution (6 mM) by dissolving NADPH into buffer C. Dispensed 30 μL of 1.5 μM spiking solution containing 0.75 mg/mL microsomes solution to the assay plates designated for different time points (0-, 5-, 15-, 30-, 45-min) on ice. For 0-min, added 135 μL of ACN containing IS to the wells of 0-min plate and then added 15 μL of NADPH stock solution (6 mM). Pre-incubated all other plates at 37° C. for 5 minutes. Added 15 μL of NADPH stock solution (6 mM) to the plates to start the reaction and timing. At 5-min, 15-min, 30-min, and 45-min, added 135 μL of ACN containing IS to the wells of corresponding plates, respectively, to stop the reaction. After quenching, shook the plates at the vibrator (IKA, MTS 2/4) for 10 min (600 rpm/min) and then centrifuged at 5594 g for 15 min (Thermo Multifuge×3R). Transferred 50 μL of the supernatant from each well into a 96-well sample plate containing 50 μL of ultra pure water (Millipore, ZMQS50F01) for LC/MS analysis.

CN1CCN(CCC(=O)Nc2ccc3c(=O)n(CC4(O)CCN(C(=O)[C@@H](CCCNC(=O)c5ccc6c(Cl)c7c(nc6c5)CCCC7)Cc5ccccc5)CC4)cnc3c2)CC1
half-life at 2 µM [1]: > 500 min
IC50 [2]: < 20 nM
half-life at 1 µM [3]: 2 min

CN1CCN(CCC(=O)Nc2ccc3c(=O)n(CC4(O)CCN(C(=O)C(CCCNC(=O)c5ccc6c(Cl)ccnc6c5)Cc5ccccc5)CC4)cnc3c2)CC1 (stereo not drawn)
half-life at 2 µM [1]: 328 min
IC50 [2]: 20 to 100 nM
half-life at 1 µM [3]: 11 min

CN(C)CCCOc1ccc2c(=O)n(CC3(O)CCN(C(=O)[C@H](CCCNC(=O)c4ccc5c(Cl)cc(C6CC6)nc5c4)Cc4ccccc4)CC3)cnc2c1
Plasma t1/2, min [1]: ∞*
IC50 [2]: < 20 nM
half-life at 1 µM [3]: 27.1 min

CN(C)CCCOc1ccc2c(=O)n(CC3(O)CCN(C(=O)[C@H](CCCNC(=O)c4ccc5c(Cl)c(C(N)=O)cnc5c4)Cc4ccccc4)CC3)cnc2c1
half-life at 2 µM [1]: 112 min
IC50 [2]: < 20 nM
half-life at 1 µM [3]: 46.6 min

CN(C)CCCOc1ccc2c(=O)n(CC3(O)CCN(C(=O)[C@H](CCCNC(=O)c4ccc5c(Cl)c(C(=O)NC6CC6)cnc5c4)Cc4ccccc4)CC3)cnc2c1
half-life at 2 µM [1]: 28.9 min
IC50 [2]: < 20 nM
half-life at 1 µM [3]: 44.1 min

CN(C)CCCOc1ccc2c(=O)n(CC3(O)CCN(C(=O)C(CCCNC(=O)c4ccc5c(Cl)c(C(N)=O)cnc5c4)Cn4ccc(F)n4)CC3)cnc2c1 (stereo not drawn)
half-life at 2 µM [1]: 85.9 min
IC50 [2]: < 20 nM
half-life at 1 µM [3]: 131 min

CN(C)CCCOc1ccc2c(=O)n(CC3(O)CCN(C(=O)[C@@H](CCCNC(=O)c4ccc5c(Cl)c(C(N)=O)cnc5c4)Cn4ccc(F)n4)CC3)cnc2c1
half-life at 2 µM [1]: 85.9 min
IC50 [2]: < 20 nM
half-life at 1 µM [3]: 223 min

CN(C)CCCOc1ccc2c(=O)n(CC3(O)CCN(C(=O)[C@H](Cc4ccccc4)N(C)CCNC(=O)c4ccc5c(Cl)c(C(N)=O)cnc5c4)CC3)cnc2c1
half-life at 2 µM [1]: 149 min
IC50 [2]: > 1000 nM
half-life at 1 µM [3]: 101 min

CN(C)CCCOc1ccc2c(=O)n(CC3(O)CCN(C(=O)C(CCCNC(=O)c4ccc5c(Cl)cc(C6CC6)nc5c4)Cn4ccc(F)n4)CC3)cnc2c1 (stereo not drawn)
half-life at 2 µM [1]: 188 min
IC50 [2]: < 20 nM
half-life at 1 µM [3]: 17 min

CN(C)CCCOc1ccc2c(=O)n(CC3(O)CCN(C(=O)C(CCCNC(=O)c4ccc5c(Cl)c6c(nc5c4)CCCC6)Cn4ccc(F)n4)CC3)cnc2c1 (stereo not drawn)
half-life at 2 µM [1]: 396 min
IC50 [2]: < 20 nM
half-life at 1 µM [3]: 2.46 min

CN(C)CCCOc1ccc2c(=O)n(CC3(O)CCN(C(=O)[C@@H](CCCNC(=O)c4ccc5c(Cl)c6c(nc5c4)CCCC6)Cn4ccc(F)n4)CC3)cnc2c1
half-life at 2 µM [1]: 127 min
half-life at 1 µM [3]: 6.96 min

O=C(NCCCC(Cn1ccc(F)n1)C(=O)N1CCC(O)(Cn2cnc3ccccc3c2=O)CC1)c1ccc2c(Cl)c3c(nc2c1)CCCC3 (stereo not drawn)
half-life at 2 µM [1]: 394 min
IC50 [2]: < 20 nM
half-life at 1 µM [3]: 0.56 min

O=C(NCCC[C@@H](Cc1ccccc1)C(=O)N1CCC(O)(Cn2cnc(NCCN3CCCC3)cc2=O)CC1)c1ccc2c(Cl)ccnc2c1 [Compound 13, N-(4-benzyl-5-(4-hydroxy-4-((6-oxo-4-(2-(pyrrolidin-1-yl)ethylamino)pyrimidin-1(6H)-yl)methyl)piperidin-1-yl)-5-oxopentyl)-4-chloroquinoline-7-carboxamide]
half-life at 2 µM [1]: 91.9 min
IC50 [2]: 20 to 100 nM

C=CC(=O)Nc1ccccc1-c1ccc(C(=O)N2CCC(O)(Cn3cnc4cc(NC(=O)CCN5CCN(C)CC5)ccc4c3=O)CC2)cc1 [Compound 24, N-(4′-(4-hydroxy-4-((7-(3-(4-methylpiperazin-1-yl)propanamido)-4-oxoquinazolin-3(4H)-yl)methyl)piperidine-1-carbonyl)biphenyl-2-yl)acrylamide]
half-life at 2 µM [1]: 23 min
IC50 [2]: > 1000 nM

CN1CCN(CCC(=O)Nc2ccc3c(=O)n(CC4(O)CCN(C(=O)[C@@H](CCCNC(=O)c5ccc6c(Cl)ccnc6c5)Cc5ccccc5)CC4)cnc3c2)CC1 [Compound 59, (S)—N-(4-benzyl-5-(4-hydroxy-4-((7-(3-(4-methylpiperazin-1-yl)propanamido)-4-oxoquinazolin-3(4H)-yl)methyl)piperidin-1-yl)-5-oxopentyl)-4-chloroquinoline-7-carboxamide]
half-life at 2 µM [1]: 78.9 min
IC50 [2]: 20 to 100 nM

CNc1cc(Cl)c2ccc(C(=O)NCCCC(Cc3ccccc3)C(=O)N3CCC(O)(Cn4cnc5cc(NC(=O)CCN(C)C)ccc5c4=O)CC3)cc2n1 (stereo not drawn) [Compound 69]
IC50 [2]: > 1000 nM
half-life at 1 µM [3]: 4.5 min

CNc1cc(Cl)nc2cc(C(=O)NCCCC(Cc3ccccc3)C(=O)N3CCC(O)(Cn4cnc5cc(NC(=O)CCN(C)C)ccc5c4=O)CC3)ccc12 (stereo not drawn) [Compound 70]
IC50 [2]: 20 to 100 nM
half-life at 1 µM [3]: 10.3 min

CN(C)CCC(=O)Nc1ccc2c(=O)n(CC3(O)CCN(C(=O)C(CCCNC(=O)c4ccc5c(Cl)cc(C(N)=O)nc5c4)Cc4ccccc4)CC3)cnc2c1 (stereo not drawn) [Compound 71]
IC50 [2]: 100 to 1000 nM
half-life at 1 µM [3]: 54.6 min

CN(C)CCC(=O)Nc1ccc2c(=O)n(CC3(O)CCN(C(=O)C(Cc4ccccc4)c4cccc(NC(=O)c5ccc6c(Cl)ccnc6c5)c4)CC3)cnc2c1 (stereo not drawn) [Compound 72]
IC50 [2]: 100 to 1000 nM
half-life at 1 µM [3]: 29.5 min

Cc1cc(Cl)c2ccc(C(=O)N3CCN(CC(=O)N4CCC(O)(Cn5cnc6cc(Cl)ccc6c5=O)CC4)CC3)cc2n1 [Compound 80]
IC50 [2]: > 1000 nM
half-life at 1 µM [3]: 5.41 min

CN(C)CCC(=O)Nc1ccc2c(=O)n(CC3(O)CCN(C(=O)C(CCCNC(=O)c4ccc5c(Cl)ccnc5c4)Cc4ccc(F)cc4)CC3)cnc2c1 (stereo not drawn) [Compound 81]
IC50 [2]: 20 to 100 nM
half-life at 1 µM [3]: 11.8 min

CN(C)CCC(=O)Nc1ccc2c(=O)n(CC3(O)CCN(C(=O)C(CCCNC(=O)c4ccc5c(Cl)c6c(nc5c4)COCC6)Cc4ccccc4)CC3)cnc2c1 (stereo not drawn) [Compound 89]
IC50 [2]: 20 to 100 nM
half-life at 1 µM [3]: 3.34 min

Cc1nc2c(=O)n(CC3(O)CCN(C(=O)C4CCN(CCNC(=O)c5ccc6c(Cl)ccnc6c5)CC4c4ccccc4)CC3)cnc2n1-c1ccc(F)cc1 (stereo not drawn) [Compound 110]
IC50 [2]: 100 to 1000 nM
half-life at 1 µM [3]: 2.21 min

CC(C)c1cnc2cc(C(=O)NCCC[C@H](Cc3ccccc3)C(=O)N3CCC(O)(Cn4cnc5cc(NC(=O)CCN(C)C)ccc5c4=O)CC3)ccc2c1Cl [Compound 119]
IC50 [2]: < 20 nM
half-life at 1 µM [3]: 3.04 min

CC(C)c1cc(Cl)c2ccc(C(=O)NCCC[C@H](Cc3ccccc3)C(=O)N3CCC(O)(Cn4cnc5cc(OCCCN(C)C)ccc5c4=O)CC3)cc2n1 [Compound 120]
IC50 [2]: < 20 nM
half-life at 1 µM [3]: 5.89 min

CN(C)CCCOc1ccc2c(=O)n(CC3(O)CCN(C(=O)[C@H](CCCNC(=O)c4ccc5c(Cl)c6c(nc5c4)CC(C)(C)C6)Cc4ccccc4)CC3)cnc2c1 [Compound 121]
IC50 [2]: < 20 nM
half-life at 1 µM [3]: 6 min
